Data taken from patent US11512053B2, “Arginine methyltransferase inhibitors and uses thereof” (priority 2013, dated 2022).
Counter-ions that a name gives are not always drawn. Like-named read-outs stand apart in the source and are kept apart here.

Target: full-length human PRMT8 isoform 1 (Homo sapiens, UniProt Q9NR22)
Test: PRMT8 Biochemical Assay (3H-SAM Flashplate, peptide substrate)
Details: read-out: Biochemical IC50 PRMT8
In short: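 Full-length human PRMT8 (1.5 nM, E. coli-expressed, GST removed) preincubated 30 min at room temperature with compound, then reacted with 50 nM 3H-SAM plus 550 nM cold SAM and 150 nM biotinylated H4 31-45 peptide in 20 mM Bicine pH 7.6, 1 mM TCEP, 0.005% BSG, 0.002% Tween 20, 2% DMSO. Quenched with 400 uM cold SAM; labelled peptide captured on streptavidin Flashplate, % inhibition versus 1 mM SAH and DMSO controls fitted to 4- or 3-parameter curve.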

[1] = single experiment or average of multiple experiments

full-length human PRMT8 isoform 1, sequence (Q9NR22 whole entry, canonical isoform): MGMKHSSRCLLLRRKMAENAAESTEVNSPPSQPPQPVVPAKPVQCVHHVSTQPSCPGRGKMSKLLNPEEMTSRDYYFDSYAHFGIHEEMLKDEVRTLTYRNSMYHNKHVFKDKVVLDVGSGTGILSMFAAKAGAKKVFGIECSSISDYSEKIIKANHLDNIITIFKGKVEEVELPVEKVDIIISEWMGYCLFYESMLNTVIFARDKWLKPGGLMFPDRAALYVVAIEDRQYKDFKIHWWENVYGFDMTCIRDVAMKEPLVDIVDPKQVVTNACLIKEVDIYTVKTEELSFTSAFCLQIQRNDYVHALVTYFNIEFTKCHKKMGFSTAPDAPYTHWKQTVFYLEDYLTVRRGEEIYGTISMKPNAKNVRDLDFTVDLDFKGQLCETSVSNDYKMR

## CNCCN(C)Cc1c[nH]nc1C1CCC(C)(C)[C@H](C(=O)NCCOC)C1 (stereo partly shown) [Compound 264]
  IC50: 101 to 1000 nM
[1]
  IC50: 181 nM

## CCN(C(=O)CC(C)C)[C@H]1CC[C@@H](c2n[nH]cc2CN(C)CCNC)CC1 [Compound 240]
  IC50: < 100 nM
[1]
  IC50: 10.9 nM

## CNCCN(C)Cc1c[nH]nc1C1CCC(C)(C)[C@H](C(=O)OC)C1 (stereo partly shown) [Compound 256]
  IC50: < 100 nM
[1]
  IC50: 44 nM

## CNCCN(C)Cc1cn(C)nc1[C@H]1CC[C@]2(CC1)CC(C)(C)CO2 [Compound 206, Methyl([1-methyl-3-[(5R,8S)-3,3-dimethyl-1-oxaspiro[4.5]decan-8-yl]-1H-pyrazol-4-yl]methyl)[2-(methylamino)ethyl]amine hydrochloride]
  IC50: < 100 nM
[1]
  IC50: 28.9 nM

## CNCCN(C)Cc1c[nH]nc1[C@H]1CC[C@H](N(CCCOC)C(=O)CCC(C)C)CC1 [Compound 243]
  IC50: < 100 nM
[1]
  IC50: 70.8 nM

## CNCCN(C)Cc1n[nH]cc1[C@H]1CC[C@@]2(CC1)CC(C)(C)CO2 [Compound 200, Methyl[2-(methylamino)ethyl]([4-[(5S,8S)-3,3-dimethyl-1-oxaspiro[4.5]decan-8-yl]-1H-pyrazol-3-yl]methyl)amine trifluoroacetic acid salt]
  IC50: < 100 nM

## CNCCN(C)Cc1c[nH]nc1[C@H]1CC[C@H](N(CCOc2ccccc2)C(=O)CC(C)C)CC1 [Compound 223]
  IC50: < 100 nM
[1]
  IC50: 8.65 nM

## CNCCN(C)Cc1c[nH]nc1[C@H]1CC[C@@H](N(CCOc2ccccc2)C(=O)CCCOC)CC1 [Compound 228]
  IC50: < 100 nM
[1]
  IC50: 100 nM

## CCN(C(=O)CCOc1ccccc1)[C@H]1CC[C@@H](c2n[nH]cc2CN(C)CCNC)CC1 [Compound 224]
  IC50: < 100 nM
[1]
  IC50: 10.2 nM

## CNCCN(C)Cc1n[nH]cc1[C@H]1CC[C@H](C(=O)NCCC(C)C)CC1 [Compound 203]
  IC50: < 100 nM
[1]
  IC50: 84.4 nM

## CNCCN(C)Cc1cn(C)nc1[C@H]1CC[C@@]2(CC1)CC(C)(C)CO2 [Compound 205, Methyl([1-methyl-3-[(5S,8S)-3,3-dimethyl-1-oxaspiro[4.5]decan-8-yl]-1H-pyrazol-4-yl]methyl)[2-(methylamino)ethyl]amine hydrochloride]
  IC50: < 100 nM
[1]
  IC50: 15.4 nM

## CNCCN(C)Cc1c[nH]nc1[C@H]1CC[C@H](N(CC(C)C)C(=O)CC2CCOCC2)CC1 [Compound 193]
  IC50: < 100 nM
[1]
  IC50: 68.8 nM

## CCOC[C@@H]1C[C@H](COCC)C[C@H](c2n[nH]cc2CN(C)CCNC)C1 [Compound 189]
  IC50: 101 to 1000 nM
[1]
  IC50: 478 nM

## CNCCN(C)Cc1c[nH]nc1[C@H]1CC[C@H](N(CC(C)C)C(=O)CCCOC)CC1 [Compound 249]
  IC50: < 100 nM
[1]
  IC50: 84.5 nM

## CNCCN(C)Cc1c[nH]nc1[C@H]1CC[C@H](N(CC(C)C)C(=O)CCCOC)CC1 [Compound 248]
  IC50: < 100 nM
[1]
  IC50: 28.2 nM

## CCN(C(=O)CC(C)C)[C@H]1CC[C@H](c2n[nH]cc2CN(C)CCNC)CC1 [Compound 239]
  IC50: < 100 nM
[1]
  IC50: 13.2 nM

## CNCCN(C)Cc1c[nH]nc1C1CCC2(CCCC2)OC1 (stereo not shown) [Compound 199]
  IC50: < 100 nM
[1]
  IC50: 38.3 nM

## CNCCN(C)Cc1c[nH]nc1[C@H]1CC[C@H](N(CCC(C)C)C(=O)CCCOC)CC1 [Compound 238]
  IC50: < 100 nM
[1]
  IC50: 80.1 nM

## CCN(C(=O)CC1CCOCC1)[C@H]1CC[C@@H](c2n[nH]cc2CN(C)CCNC)CC1 [Compound 196]
  IC50: 101 to 1000 nM
[1]
  IC50: 415 nM

## CNCCN(C)Cc1cnn(C)c1[C@H]1CC[C@]2(CC1)CC(C)(C)CO2 [Compound 257]
  IC50: < 100 nM
[1]
  IC50: 31 nM

## CNCCN(C)Cc1c[nH]nc1[C@H]1CC[C@@H](N(CCOc2ccccc2)C(=O)CC(C)C)CC1 [Compound 222]
  IC50: < 100 nM
[1]
  IC50: 90 nM

## CCOC[C@H]1CC(c2n[nH]cc2CN(C)CCNC)C[C@H](COCC)C1 (stereo partly shown) [Compound 188]
  IC50: 1010 to 3000 nM
[1]
  IC50: 1540 nM

## CNCCN(C)Cc1c[nH]nc1[C@H]1CC[C@@H](N(CCOc2ccccc2)C(=O)CCOC)CC1 [Compound 218]
  IC50: < 100 nM
[1]
  IC50: 67 nM

## CNCCN(C)Cc1c[nH]nc1[C@H]1CC[C@H](N(CCCOC)C(=O)CCOc2ccccc2)CC1 [Compound 247]
  IC50: < 100 nM
[1]
  IC50: 16.4 nM

## CCC(=O)N(CCOc1ccccc1)[C@H]1CC[C@@H](c2n[nH]cc2CN(C)CCNC)CC1 [Compound 220]
  IC50: < 100 nM
[1]
  IC50: 12.9 nM

## CNCCN(C)Cc1c[nH]nc1[C@H]1CC[C@H](C(=O)NCCOc2ccccc2)CC1 [Compound 211]
  IC50: < 100 nM
[1]
  IC50: 10 nM

## CNCCN(C)Cc1c[nH]nc1[C@H]1CC[C@@H](N(CCC(C)C)C(=O)CCCOC)CC1 [Compound 237]
  IC50: < 100 nM
[1]
  IC50: 83.3 nM

## CCN(C(=O)CCC(C)C)[C@H]1CC[C@@H](c2n[nH]cc2CN(C)CCNC)CC1 [Compound 251]
  IC50: < 100 nM
[1]
  IC50: 20.7 nM

## CNCCN(C)Cc1c[nH]nc1[C@H]1CC[C@@H](C(=O)N(C)CC(C)C)CC1 [Compound 215]
  IC50: < 100 nM
[1]
  IC50: 23 nM

## CNCCN(C)Cc1c[nH]nc1C1CCC(F)(F)CC1 [Compound 216]
  IC50: < 100 nM
[1]
  IC50: 17.8 nM

## CNCCN(C)Cc1c[nH]nc1[C@H]1CC[C@@H](N(CC(C)C)C(=O)CCOC)CC1 [Compound 233]
  IC50: < 100 nM
[1]
  IC50: 42.7 nM

## CNCCN(C)Cc1c[nH]nc1[C@H]1CC[C@H](N(CC2CCOCC2)C(=O)CC(C)C)CC1 [Compound 192]
  IC50: 101 to 1000 nM
[1]
  IC50: 459 nM

## CNCCN(C)Cc1c[nH]nc1[C@H]1CC[C@@H](O)CC1 [Compound 217, 4-[4-([methyl[2-(methylamino)ethyl]amino]methyl)-1H-pyrazol-3-yl]cyclohexan-1-ol trifluoroacetate]
  IC50: < 100 nM
[1]
  IC50: 59.5 nM

## CNCCN(C)Cc1c[nH]nc1[C@H]1CC[C@@H](N(CCCOC)C(=O)CC(C)C)CC1 [Compound 242]
  IC50: < 100 nM
[1]
  IC50: 83.7 nM

## CNCCN(C)Cc1n[nH]cc1[C@H]1CC[C@]2(CC1)CC(C)(C)CO2 [Compound 201]
  IC50: < 100 nM

## CNCCN(C)Cc1c[nH]nc1C1CCC(C)(C)[C@@H](C(=O)NCCC(C)C)C1 (stereo partly drawn) [Compound 263, (1S)-2,2-dimethyl-5-[4-({methyl[2-(methylamino)ethyl]amino}methyl)-1H-pyrazol-3-yl]-N-(3-methylbutyl)cyclohexane-1-carboxamide]
  IC50: < 100 nM
[1]
  IC50: 35.1 nM

## CNCCN(C)Cc1c[nH]nc1C1CCC(=O)CC1 [Compound 194]
  IC50: < 100 nM
[1]
  IC50: 35.3 nM

## CNCCN(C)Cc1c[nH]nc1[C@H]1CC[C@H](N(CCOc2ccccc2)C(=O)CCOC)CC1 [Compound 219]
  IC50: < 100 nM
[1]
  IC50: 15 nM

## CNCCN(C)Cc1c[nH]nc1C1CCC(C)(C)[C@H](C(=O)NCC(C)C)C1 (stereo partly shown) [Compound 262]
  IC50: < 100 nM
[1]
  IC50: 72.4 nM

## CCN(C(=O)CCC(C)C)[C@H]1CC[C@H](c2n[nH]cc2CN(C)CCNC)CC1 [Compound 250]
  IC50: < 100 nM
[1]
  IC50: 42.4 nM

## CNCCN(C)Cc1c[nH]nc1C1CCC(C)(C)[C@H](C(=O)NCCCOC)C1 (stereo partly shown) [Compound 265]
  IC50: 101 to 1000 nM
[1]
  IC50: 171 nM

## CNCCN(C)Cc1cnn(C)c1[C@H]1CC[C@@]2(CC1)CC(C)(C)CO2 [Compound 245, Methyl ([2-[methyl([1-methyl-5-[(5S,8S)-3,3-dimethyl-1-oxaspiro[4.5]decan-8-yl]-1H-pyrazol-4-yl]methyl)amino]ethyl])amine trifluoroacetic acid salt]
  IC50: < 100 nM
[1]
  IC50: 18.3 nM

## CNCCN(C)Cc1c[nH]nc1[C@H]1CC[C@@H](N(CCCOC)C(=O)CCOc2ccccc2)CC1 [Compound 246]
  IC50: < 100 nM
[1]
  IC50: 23.8 nM

## CNCCN(C)Cc1c[nH]nc1[C@H]1CC[C@H](N(CCOC)C(=O)CC(C)C)CC1 [Compound 252]
  IC50: < 100 nM
[1]
  IC50: 51.5 nM

## CCN(C(=O)CCOc1ccccc1)[C@H]1CC[C@H](c2n[nH]cc2CN(C)CCNC)CC1 [Compound 225]
  IC50: < 100 nM
[1]
  IC50: 13.9 nM

## CNCCN(C)Cc1c[nH]nc1C1CCC(C)(C)[C@@H](C(=O)NCC(C)C)C1 (stereo partly shown) [Compound 266]
  IC50: < 100 nM
[1]
  IC50: 63.1 nM

## CNCCN(C)Cc1c[nH]nc1[C@H]1CC[C@H](N(CC(C)C)C(=O)CCOC)CC1 [Compound 234]
  IC50: < 100 nM
[1]
  IC50: 42.8 nM

## CCOCC1CC(c2n[nH]cc2CN(C)CCNC)CCC1(C)C (stereo not shown) [Compound 202]
  IC50: < 100 nM
[1]
  IC50: 26.9 nM

## CNCCN(C)Cc1c[nH]nc1[C@H]1CC[C@H](N(CC(C)C)C(=O)CCOc2ccccc2)CC1 [Compound 232]
  IC50: < 100 nM
[1]
  IC50: 21 nM

## CNCCN(C)Cc1c[nH]nc1[C@H]1CC[C@H](N(CCCOC)C(=O)CC(C)C)CC1 [Compound 241]
  IC50: < 100 nM
[1]
  IC50: 48.9 nM

## CNCCN(C)Cc1c[nH]nc1[C@H]1CC[C@@H](N(CCOC)C(=O)CCC(C)C)CC1 [Compound 261]
  IC50: < 100 nM
[1]
  IC50: 16.7 nM

## CN(CCN)Cc1c[nH]nc1[C@H]1CC[C@@]2(CC1)CC(C)(C)CO2 [Compound 207]
  IC50: < 100 nM

## CNCCN(C)Cc1c[nH]nc1[C@H]1CC[C@@H](C(=O)N(C)CCC(C)C)CC1 [Compound 210]
  IC50: < 100 nM
[1]
  IC50: 22.9 nM

## CNCCN(C)Cc1c[nH]nc1C1CCC(=O)N(CCCOC)C1 (stereo not shown) [Compound 190]
  IC50: 101 to 1000 nM
[1]
  IC50: 352 nM

## CNCCN(C)Cc1c[nH]nc1[C@H]1CC[C@H](O)CC1 [Compound 227, 4-[4-([methyl[2-(methylamino)ethyl]amino]methyl)-1H-pyrazol-3-yl]cyclohexan-1-ol trifluoroacetate]
  IC50: < 100 nM
[1]
  IC50: 35.8 nM

## CNCCN(C)Cc1c[nH]nc1[C@H]1CC[C@]2(CCN(Cc3cc(F)cc(F)c3)C2=O)CC1 [Compound 197]
  IC50: < 100 nM
[1]
  IC50: 15.6 nM
